Tested on: 873145-292-R-J1-PDC complex spheroid viability
Test: Anticancer human tumor 873145-292-R-J1-PDC patient-derived renal clear cell carcinoma cell line growth inhibition [POLQ]
Details: for IC50: curve of first compound; for viability, T/C: stronger effect = lower value
Method in brief: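 Three-cell-type spheroids modelling solid tumor plus stroma served as the readout system; POL inhibitors were tested individually and in combination, concentration ranges set by clinical Cmax where known.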

[1] = second compound 0.0316 µM, first compound 0.0316 µM
[2] = second compound 0.0316 µM, first compound 0.1 µM
[3] = second compound 0.0316 µM, first compound 0.316 µM
[4] = second compound 0.0316 µM, first compound 1 µM
[5] = second compound 0.0316 µM, first compound 3.16 µM
[6] = second compound 0.0316 µM, first compound 10 µM
[7] = second compound 0.1 µM, first compound 0.0316 µM
[8] = second compound 0.1 µM, first compound 0.1 µM
[9] = second compound 0.1 µM, first compound 0.316 µM
[10] = second compound 0.1 µM, first compound 1 µM
[11] = second compound 0.1 µM, first compound 3.16 µM
[12] = second compound 0.1 µM, first compound 10 µM
[13] = second compound 0.316 µM, first compound 0.0316 µM
[14] = second compound 0.316 µM, first compound 0.1 µM
[15] = second compound 0.316 µM, first compound 0.316 µM
[16] = second compound 0.316 µM, first compound 1 µM
[17] = second compound 0.316 µM, first compound 3.16 µM
[18] = second compound 0.316 µM, first compound 10 µM
[19] = second compound 1 µM, first compound 0.0316 µM
[20] = second compound 1 µM, first compound 0.1 µM
[21] = second compound 1 µM, first compound 0.316 µM
[22] = second compound 1 µM, first compound 1 µM
[23] = second compound 1 µM, first compound 3.16 µM
[24] = second compound 1 µM, first compound 10 µM
[25] = second compound 3.16 µM, first compound 0.0316 µM
[26] = second compound 3.16 µM, first compound 0.1 µM
[27] = second compound 3.16 µM, first compound 0.316 µM
[28] = second compound 3.16 µM, first compound 1 µM
[29] = second compound 3.16 µM, first compound 3.16 µM
[30] = second compound 3.16 µM, first compound 10 µM
[31] = second compound 10 µM, first compound 0.0316 µM
[32] = second compound 10 µM, first compound 0.1 µM
[33] = second compound 10 µM, first compound 0.316 µM
[34] = second compound 10 µM, first compound 1 µM
[35] = second compound 10 µM, first compound 3.16 µM
[36] = second compound 10 µM, first compound 10 µM
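Note: spheroids exposed to compounds for 7 days before viability readout.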
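Throughout, for viability, T/C: luminescence signal used as surrogate for viable cell content; 100% = DMSO vehicle control viability.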

CCc1cc2c(N3CCc4c(cc(Cn5ccnc5)cc4-c4cn(C)nc4C(F)(F)F)C3=O)cc(C)nc2c(OC)n1 + Cc1cccc(N(C)C(=O)C2C(O)CCN2c2nc(C)cc(C(F)(F)F)c2C#N)c1
IC50 (second compound 0.0316 µM): > 10 µM
IC50 (second compound 0.1 µM): > 10 µM
IC50 (second compound 0.316 µM): > 10 µM
IC50 (second compound 1 µM): > 10 µM
IC50 (second compound 3.16 µM): > 10 µM
IC50 (second compound 10 µM): > 10 µM
viability, T/C [1]: 99.1%
viability, T/C [2]: 99.8%
viability, T/C [3]: 102%
viability, T/C [4]: 77.3%
viability, T/C [5]: 105%
viability, T/C [6]: 83.2%
viability, T/C [7]: 97.1%
viability, T/C [8]: 99.8%
viability, T/C [9]: 80.5%
viability, T/C [10]: 90.5%
viability, T/C [11]: 93.9%
viability, T/C [12]: 89.8%
viability, T/C [13]: 97.4%
viability, T/C [14]: 102%
viability, T/C [15]: 76.1%
viability, T/C [16]: 97.5%
viability, T/C [17]: 84.2%
viability, T/C [18]: 87.4%
viability, T/C [19]: 93%
viability, T/C [20]: 86.5%
viability, T/C [21]: 91.4%
viability, T/C [22]: 79.4%
viability, T/C [23]: 102%
viability, T/C [24]: 70.2%
viability, T/C [25]: 90.7%
viability, T/C [26]: 87.4%
viability, T/C [27]: 87.5%
viability, T/C [28]: 96.7%
viability, T/C [29]: 77.2%
viability, T/C [30]: 89.6%
viability, T/C [31]: 89.1%
viability, T/C [32]: 102%
viability, T/C [33]: 93.1%
viability, T/C [34]: 88.5%
viability, T/C [35]: 76.7%
viability, T/C [36]: 81.6%

CC1COCCN1c1cc(-c2ccnn2C)c2ccnc(-c3ccn[nH]3)c2n1 (stereo unspecified) + COC1C(OC(N)=O)C(O)C(Oc2ccc3c(O)c(NC(=O)c4ccc(O)c(CC=C(C)C)c4)c(=O)oc3c2C)OC1(C)C
IC50 (second compound 0.0316 µM): 1.52 µM
IC50 (second compound 0.1 µM): 0.986 µM
IC50 (second compound 0.316 µM): 1.21 µM
IC50 (second compound 1 µM): 0.864 µM
IC50 (second compound 3.16 µM): 0.952 µM
IC50 (second compound 10 µM): 0.948 µM
viability, T/C [1]: 86.7%
viability, T/C [2]: 80.9%
viability, T/C [3]: 68.6%
viability, T/C [4]: 54.8%
viability, T/C [5]: 42.2%
viability, T/C [6]: 38.5%
viability, T/C [7]: 94.1%
viability, T/C [8]: 83.4%
viability, T/C [9]: 70%
viability, T/C [10]: 47.1%
viability, T/C [11]: 43.8%
viability, T/C [12]: 47.3%
viability, T/C [13]: 94.2%
viability, T/C [14]: 76.3%
viability, T/C [15]: 63.7%
viability, T/C [16]: 51.6%
viability, T/C [17]: 41.2%
viability, T/C [18]: 45.1%
viability, T/C [19]: 92.5%
viability, T/C [20]: 80.9%
viability, T/C [21]: 63.4%
viability, T/C [22]: 47.6%
viability, T/C [23]: 42.1%
viability, T/C [24]: 42.3%
viability, T/C [25]: 85.1%
viability, T/C [26]: 79.8%
viability, T/C [27]: 66.8%
viability, T/C [28]: 49.9%
viability, T/C [29]: 38.3%
viability, T/C [30]: 38.1%
viability, T/C [31]: 93%
viability, T/C [32]: 82.8%
viability, T/C [33]: 67.2%
viability, T/C [34]: 47.6%
viability, T/C [35]: 43.7%
viability, T/C [36]: 41.8%

O=C(Nc1ccc(O)c(NS(=O)(=O)c2ccc(F)cc2)c1)c1ccc(-c2ccccc2)cc1 + Nc1ccc(C#CCN(C(=O)Cc2ncc(C(F)(F)F)cc2C(F)(F)F)c2ccc(F)cc2)nn1
IC50 (second compound 0.0316 µM): > 10 µM
IC50 (second compound 0.1 µM): > 10 µM
IC50 (second compound 0.316 µM): > 10 µM
IC50 (second compound 1 µM): > 10 µM
IC50 (second compound 3.16 µM): > 10 µM
IC50 (second compound 10 µM): > 10 µM
viability, T/C [1]: 98%
viability, T/C [2]: 112%
viability, T/C [3]: 113%
viability, T/C [4]: 96.3%
viability, T/C [5]: 110%
viability, T/C [6]: 102%
viability, T/C [7]: 113%
viability, T/C [8]: 113%
viability, T/C [9]: 95.9%
viability, T/C [10]: 101%
viability, T/C [11]: 107%
viability, T/C [12]: 98.9%
viability, T/C [13]: 102%
viability, T/C [14]: 113%
viability, T/C [15]: 114%
viability, T/C [16]: 108%
viability, T/C [17]: 113%
viability, T/C [18]: 98.3%
viability, T/C [19]: 112%
viability, T/C [20]: 100%
viability, T/C [21]: 101%
viability, T/C [22]: 98.2%
viability, T/C [23]: 100%
viability, T/C [24]: 105%
viability, T/C [25]: 113%
viability, T/C [26]: 103%
viability, T/C [27]: 109%
viability, T/C [28]: 106%
viability, T/C [29]: 98.7%
viability, T/C [30]: 106%
viability, T/C [31]: 106%
viability, T/C [32]: 112%
viability, T/C [33]: 105%
viability, T/C [34]: 117%
viability, T/C [35]: 112%
viability, T/C [36]: 93.9%

Source: PubChem BioAssay AID1963834 (Molecular Pharmacology Branch, DTP, NCI, 2024)
